Earlier results on one molecule are cited in paper PMC6222829, “Synthesis, Molecular Docking and Anticancer Activity of Diflunisal Derivatives as Cyclooxygenase Enzyme Inhibitors” (Molecules : A Journal of Synthetic Chemistry and Natural …, 2018).

A word on the IC50: it is the point on the concentration scale where inhibition reaches its midpoint.

Common to all, as to set-up: method as in PMID 20658169, PMID 26580554
Common to all, as to conditions: literature value ref 42,43; cited from earlier work

Data set [1] has as its system T47D cell line.
The test system of data set [2] is PC-3 cell line.
The test system of data set [3] is HCT116 cell line.

Take `N.N.[Cl][Pt][Cl]` [Cisplatin]: the IC50 in data set [1] was 836 nM; in data set [2] it was 39900 nM; in data set [3], 1250 nM.
